{"source": "patent US20160175249A1", "about": "“Liposomes Containing Oligopeptide Fragments of Myelin Basic Protein, a Pharmaceutical Composition and a Method for Treatment of Multiple Sclerosis” (LIPOXEN TECHNOLOGIES LIMITED, priority 2009, published 2016)", "key": {"[1]": {"test_system": "multiple sclerosis (cerebrospinal form, remissive course)", "assay": "Treatment of a human subject diagnosed with multiple sclerosis (Example 7)", "type": "in vivo", "details": "patient, 500 mg once every two weeks", "excerpt": "A patient diagnosed with multiple sclerosis (cerebrospinal form, remissive course), in the relapse stage, was previously subjected to repeated corticosteroid treatment. […] At the time of treatment, the patient presented with: lateral nystagmus when looking to the right, active tendon reflex, S<D in the legs, active upper abdominal reflex, absent middle and lower abdominal reflex, bilateral Babinski's symptom, foot clonus (more expressed in the right foot), no paresis in the extremities, muscle tonicity unchanged, ataxic gait, loss of balance in the Romberg stance, ataxia when performing hccl-shin test, and urine retention. The value of the patient's neurological deficit on the EDSS scale was 6.\nThe patient also presented with ophthalmic blanching of temporal halves of optic nerve heads. After studying the patient's PBMC, the activity of T-lymphocytcs with respect to MBP was determined at a stimulation index (SI) of 7.45. Levels of serum IgG antibodies were 75 units per ml.\nWith the patient's consent, the prototype peptide composition was administered once every two weeks at a dosage of 500 mg. 7 days after each injection, the patient's peripheral (venous) blood was sampled in order to determine changes in T-lymphocyte activity with respect to MBP, as well as autoantibody levels. […] At week four, the patients IgG autoantibody level increased to 112 units per mL, and T-cell SI doubled. […]"}, "[2]": {"test_system": "experimental allergic encephalomyelitis (EAE) in DA rats", "assay": "Treatment of EAE in DA rats with liposomally encapsulated MBP peptides (Example 5)", "type": "in vivo", "details": "150 μg per animal daily subdermally days 6-11, score 0-5", "experimental": "To induce experimental allergic encephalomyelitis (EAE) in DA rats having a mass of 220-250 g ([…]), 10 μg of myelin basic protein encephalogenic peptide fragment ARTTHYGSLPQKSQRSQ (SEQ ID NO:4; Anaspec, US) emulsified in Freund's complete adjuvant (Difco, US) at a concentration of 10% (m/v) was subdermally injected into the forepaw. The rats were weighted and monitored for EAE neurological symptoms daily. The EAE symptom profile of each rate was scored according to the following scale: (0)—absence of EAE symptoms; (1)—decrease in tail tonicity; (2)—decrease in righting reflex; (3)—paresis; (4)—full paralysis; and (5)—agony or death. Intermediary symptoms were scored by increasing or decreasing the value by 0.5 units. Six days after EAE induction, animals were randomly distributed into several groups (12 animals each).\nBetween days six and eleven after induction, rats in each respective group were subdermally injected with the liposomal preparation described in Example 2 (emulsified in phosphate saline solution, pH 7.4), a positive control preparation of glatiramer acetate (GA; copaxone, Teva Pharmaceutical Industries Ltd, Israel), a prototype peptide: DENPVVIIFFKNIVTPRT (SEQ ID NO:5), or a buffered phosphate saline solution (pH 7.4) placebo. The peptide, Glatiramer acetate, and liposomal preparations were formulated immediately prior to administration using buffered phosphate saline solution (pH 7.4). 0.1 mL of each composition was administered daily at a concentration of 150 μg per animal."}}, "data": [{"sequence": "DENPVVIIFFKNIVTPRT (a prototype peptide) [prototype peptide used as comparator]", "values": [{"measurement": "clinical presentation of MS", "setting": "[1]; over the course of 7 weeks", "value": "progressed slightly"}, {"measurement": "T-cell SI", "setting": "[1]; week four, before treatment 7.45", "value": "doubled"}, {"measurement": "Evaluation of EAE symptom intensity, average", "setting": "[2]; day 0 after EAE induction", "value": 0.00}, {"measurement": "Evaluation of EAE symptom intensity, average", "setting": "[2]; day 1 after EAE induction", "value": 0.00}, {"measurement": "Evaluation of EAE symptom intensity, average", "setting": "[2]; day 2 after EAE induction", "value": 0.00}, {"measurement": "Evaluation of EAE symptom intensity, average", "setting": "[2]; day 3 after EAE induction", "value": 0.00}, {"measurement": "Evaluation of EAE symptom intensity, average", "setting": "[2]; day 4 after EAE induction", "value": 0.00}, {"measurement": "Evaluation of EAE symptom intensity, average", "setting": "[2]; day 5 after EAE induction", "value": 0.00}, {"measurement": "Evaluation of EAE symptom intensity, average", "setting": "[2]; day 6 after EAE induction", "value": 0.00}, {"measurement": "Evaluation of EAE symptom intensity, average", "setting": "[2]; day 7 after EAE induction", "value": 0.00}, {"measurement": "Evaluation of EAE symptom intensity, average", "setting": "[2]; day 8 after EAE induction", "value": 0.58}, {"measurement": "Evaluation of EAE symptom intensity, average", "setting": "[2]; day 9 after EAE induction", "value": 1.33}, {"measurement": "Evaluation of EAE symptom intensity, average", "setting": "[2]; day 10 after EAE induction", "value": 2.42}, {"measurement": "Evaluation of EAE symptom intensity, average", "setting": "[2]; day 11 after EAE induction", "value": 2.33}, {"measurement": "Evaluation of EAE symptom intensity, average", "setting": "[2]; day 12 after EAE induction", "value": 2.50}, {"measurement": "Evaluation of EAE symptom intensity, average", "setting": "[2]; day 13 after EAE induction", "value": 2.17}, {"measurement": "Evaluation of EAE symptom intensity, average", "setting": "[2]; day 14 after EAE induction", "value": 2.00}, {"measurement": "Evaluation of EAE symptom intensity, average", "setting": "[2]; day 15 after EAE induction", "value": 1.83}, {"measurement": "Evaluation of EAE symptom intensity, average", "setting": "[2]; day 16 after EAE induction", "value": 1.67}, {"measurement": "Evaluation of EAE symptom intensity, average", "setting": "[2]; day 17 after EAE induction", "value": 1.33}, {"measurement": "Evaluation of EAE symptom intensity, average", "setting": "[2]; day 18 after EAE induction", "value": 1.42}, {"measurement": "Evaluation of EAE symptom intensity, average", "setting": "[2]; day 19 after EAE induction", "value": 1.08}, {"measurement": "Evaluation of EAE symptom intensity, average", "setting": "[2]; day 20 after EAE induction", "value": 0.83}, {"measurement": "Evaluation of EAE symptom intensity, average", "setting": "[2]; day −1 after EAE induction", "value": 0.00}]}]}
